The target of this assay is T1, hMC2 receptor (crude hMC2R membranes from CRE-bla-CHO-K1 cells stably expressing hMC2 receptor and hMRAP accessory protein) (Homo sapiens, UniProt Q01718).
T1 construct: crude membrane fractions
T1 sequence (Q01718 whole entry): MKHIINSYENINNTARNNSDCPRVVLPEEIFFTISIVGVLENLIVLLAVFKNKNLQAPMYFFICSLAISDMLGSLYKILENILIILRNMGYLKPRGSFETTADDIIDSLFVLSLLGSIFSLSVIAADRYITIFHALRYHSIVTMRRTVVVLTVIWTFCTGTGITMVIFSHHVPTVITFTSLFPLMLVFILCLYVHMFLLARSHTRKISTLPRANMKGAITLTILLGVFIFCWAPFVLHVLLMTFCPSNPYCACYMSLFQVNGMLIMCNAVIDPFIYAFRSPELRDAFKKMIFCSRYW
T1 sequence (Q8TCY5 whole entry partner): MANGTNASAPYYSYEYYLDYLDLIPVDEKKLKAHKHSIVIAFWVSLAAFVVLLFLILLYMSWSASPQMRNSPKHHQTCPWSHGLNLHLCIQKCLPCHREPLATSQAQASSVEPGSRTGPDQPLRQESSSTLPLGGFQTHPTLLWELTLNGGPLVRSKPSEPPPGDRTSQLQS
Nature of the assay: hMC2 membrane binding assay ([125I]ACTH (1-39) Tyr23, SPA). The note with it: displacement of 0.2 nM [125I]ACTH (1-39) Tyr23 from hMC2R membranes, 1.5 hours at room temperature; read-out: MC2R binding potency. The method in brief: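 Ki values come from non-linear regression of SPA scintillation counts, with compounds displacing [125I]ACTH(1-39) Tyr23. Membranes come from CRE-bla-CHO-K1 cells stably expressing hMC2 receptor together with hMRAP. They are preincubated with WGA-coated PVT SPA beads in 50 mM HEPES pH 7.4 with 0.20% BSA, Mg2+, Ca2+ and protease inhibitors.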
As for `CCOc1ncccc1-c1ccc(C2(C(=O)N[C@H]3CCN(C)C3)CCN(c3ccc(C(F)F)cc3C#N)CC2)cn1` [Compound 1-37, 1-[2-cyano-4-(difluoromethyl)phenyl]-4-{2′-ethoxy-[2,3′-bipyridin]-5-yl}-N-[(3S)-1-methylpyrrolidin-3-yl]piperidine-4-carboxamide], the Ki was under 10 nM. The value for `CCOc1ncccc1-c1ncc(C2(C(=O)NCCN(C)C)CCN(c3ccc(C(F)(F)F)cc3Cl)CC2)cc1F` [Compound 1-288, 1-[2-chloro-4-(trifluoromethyl)phenyl]-N-[2-(dimethylamino)ethyl]-4-{2′-ethoxy-3-fluoro-[2,3′-bipyridin]-5-yl}piperidine-4-carboxamide] was under 10 nM.

Regarding `COc1sccc1-c1ccc(C2(C(=O)N[C@@H]3CCN(C)C3)CCN(c3ccc(C(F)(F)F)cc3C#N)CC2)cn1` [Compound 1-83, 1-[2-cyano-4-(trifluoromethyl)phenyl]-4-[6-(2-methoxythiophen-3-yl)pyridin-3-yl]-N-[(3R)-1-methylpyrrolidin-3-yl]piperidine-4-carboxamide], the Ki was under 10 nM. With `COc1ccc(F)cc1-c1ccc(C2(C(=O)N[C@@H]3CCN(C)C3)CCN(c3ccc(C(F)(F)F)cc3C#N)CC2)cn1` [Compound 1-81, 1-[2-cyano-4-(trifluoromethyl)phenyl]-4-[6-(5-fluoro-2-methoxyphenyl)pyridin-3-yl]-N-[(3R)-1-methylpyrrolidin-3-yl]piperidine-4-carboxamide], the Ki is under 10 nM. With `CCOc1ncccc1-c1ccc(C2(C(=O)N[C@@H]3CCN(C)C3)CCN(c3ccc(C(F)(F)F)cc3C)CC2)cc1` [Compound 1-164, 4-[4-(2-ethoxypyridin-3-yl)phenyl]-1-[2-methyl-4-(trifluoromethyl)phenyl]-N-[(3R)-1-methylpyrrolidin-3-yl]piperidine-4-carboxamide] the figure was 10 to 100 nM. The value for `CCOc1ccccc1-c1ccc(C2(C(=O)N[C@H]3CCN(C)C3)CCN(c3ccc(Cl)cc3C#N)CC2)cn1` [Compound 1-90, 1-(4-chloro-2-cyanophenyl)-4-[6-(2-ethoxyphenyl)pyridin-3-yl]-N-[(3S)-1-methylpyrrolidin-3-yl]piperidine-4-carboxamide] was under 10 nM; that for `CCOc1ncccc1-c1ccc(C2(C(=O)N[C@@H]3CCN(C)C3)CCN(c3ccc(C(F)(F)F)cc3C#N)CC2)nn1` [Compound 1-57, 1-[2-cyano-4-(trifluoromethyl)phenyl]-4-[6-(2-ethoxypyridin-3-yl)pyridazin-3-yl]-N-[(3R)-1-methylpyrrolidin-3-yl]piperidine-4-carboxamide] was under 10 nM; that for `COc1cccnc1-c1ccc(C2(C(=O)N[C@H]3CCN(C)C3)CCN(c3ccc(C(F)(F)F)cc3C#N)CC2)cn1` [Compound 1-178, 1-[2-cyano-4-(trifluoromethyl)phenyl]-4-{3′-methoxy-[2,2′-bipyridin]-5-yl}-N-[(3S)-1-methylpyrrolidin-3-yl]piperidine-4-carboxamide] was 10 to 100 nM. The value for `CN1CC[C@H](OC(=O)NC2(c3ccc(-c4cccn4C)nc3)CCN(c3ccc(C(F)(F)F)cc3C#N)CC2)C1` [Compound 2-42, (3S)-1-methylpyrrolidin-3-yl N-{1-[2-cyano-4-(trifluoromethyl)phenyl]-4-[6-(1-methyl-1H-pyrrol-2-yl)pyridin-3-yl]piperidin-4-yl}carbamate] was under 10 nM. With `CCOc1ncccc1-c1ncc(C2(C(=O)N[C@H]3CCN(C)C3)CCN(c3ccc(C(F)(F)F)cc3C#N)CC2)cc1F` [Compound 1-109, 1-[2-cyano-4-(trifluoromethyl)phenyl]-4-{2′-ethoxy-3-fluoro-[2,3′-bipyridin]-5-yl}-N-[(3S)-1-methylpyrrolidin-3-yl]piperidine-4-carboxamide], the Ki was under 10 nM. The value for `COc1ncccc1-c1ncc(C2(C(=O)NCCN(C)C)CCN(c3ccc(C(F)(F)F)cc3Cl)CC2)cc1F` [Compound 1-302, 1-[2-chloro-4-(trifluoromethyl)phenyl]-N-[2-(dimethylamino)ethyl]-4-{3-fluoro-2′-methoxy-[2,3′-bipyridin]-5-yl}piperidine-4-carboxamide] was under 10 nM. The value for `CCOc1ncccc1-c1cnc(C2(C(=O)N[C@H]3CCN(C)C3)CCN(c3ccc(C(F)(F)F)cc3C#N)CC2)cn1` [Compound 1-58, 1-[2-cyano-4-(trifluoromethyl)phenyl]-4-[5-(2-ethoxypyridin-3-yl)pyrazin-2-yl]-N-[(3S)-1-methylpyrrolidin-3-yl]piperidine-4-carboxamide] was under 10 nM; that for `CCOc1ncccc1-c1ccc(C2(C(=O)N[C@H]3CCN(C)C3)CCN(c3ccc(Cl)cc3C#N)CC2)nn1` [Compound 1-139, 1-(4-chloro-2-cyanophenyl)-4-[6-(2-ethoxypyridin-3-yl)pyridazin-3-yl]-N-[(3S)-1-methylpyrrolidin-3-yl]piperidine-4-carboxamide] was under 10 nM. With `COc1ccccc1-c1ncc(C2(NC(=O)N[C@H]3CCN(C)C3)CCN(c3ccc(C(F)(F)F)cc3C#N)CC2)cc1F` [Compound 2-51, 1-{1-[2-cyano-4-(trifluoromethyl)phenyl]-4-[5-fluoro-6-(2-methoxyphenyl)pyridin-3-yl]piperidin-4-yl}-3-[(3S)-1-methylpyrrolidin-3-yl]urea] the figure was under 10 nM; with `CCOc1ncccc1-c1ncc(C2(C(=O)NC[C@H](CO)N(C)C)CCN(c3ccc(C(F)(F)F)cc3C#N)CC2)cc1F` [Compound 1-334, 1-[2-cyano-4-(trifluoromethyl)phenyl]-N-[(2R)-2-(dimethylamino)-3-hydroxypropyl]-4-{2′-ethoxy-3-fluoro-[2,3′-bipyridin]-5-yl}piperidine-4-carboxamide], under 10 nM; with `CNCCNC(=O)C1(c2ccc(-c3ccccc3OC)nc2)CCN(c2ccc(C(F)(F)F)cc2Cl)CC1` [Compound 1-257, 1-[2-chloro-4-(trifluoromethyl)phenyl]-4-[6-(2-methoxyphenyl)pyridin-3-yl]-N-[2-(methylamino)ethyl]piperidine-4-carboxamide], under 10 nM. `CN(C)CCNC(=O)C1(c2cnc(-c3cccn3C)c(F)c2)CCN(c2ccc(C(F)(F)F)cc2Cl)CC1` [Compound 1-309, 1-[2-chloro-4-(trifluoromethyl)phenyl]-N-[2-(dimethylamino)ethyl]-4-[5-fluoro-6-(1-methyl-1H-pyrrol-2-yl)pyridin-3-yl]piperidine-4-carboxamide]: the Ki was under 10 nM. The value for `COc1ccccc1-c1ncc(C2(C(=O)NCCN(C)C)CCN(c3ccc(C(F)(F)F)cc3Cl)CC2)cc1F` [Compound 1-286, 1-[2-chloro-4-(trifluoromethyl)phenyl]-N-[2-(dimethylamino)ethyl]-4-[5-fluoro-6-(2-methoxyphenyl)pyridin-3-yl]piperidine-4-carboxamide] was under 10 nM; that for `CCOc1ncccc1-c1ccc(C2(C(=O)NC[C@H](N)CO)CCN(c3ccc(C(F)(F)F)cc3C#N)CC2)cn1` [Compound 1-28, N-[(2S)-2-amino-3-hydroxypropyl]-1-[2-cyano-4-(trifluoromethyl)phenyl]-4-{2′-ethoxy-[2,3′-bipyridin]-5-yl}piperidine-4-carboxamide] was under 10 nM.

Take `CCOc1ncccc1-c1ccc(C2(C(=O)N[C@H]3CCN(C)C3)CCN(c3ccc(Cl)cc3C#N)CC2)cn1` [Compound 1-34, 1-(4-chloro-2-cyanophenyl)-4-{2′-ethoxy-[2,3′-bipyridin]-5-yl}-N-[(3S)-1-methylpyrrolidin-3-yl]piperidine-4-carboxamide]: the Ki was under 10 nM. With `CN(CCNC(=O)C1(c2ccc(-c3cccn3C)nc2)CCN(c2ccc(C(F)(F)F)cc2C#N)CC1)C1CC1` [Compound 1-266, 1-[2-cyano-4-(trifluoromethyl)phenyl]-N-{2-[cyclopropyl(methyl)amino]ethyl}-4-[6-(1-methyl-1H-pyrrol-2-yl)pyridin-3-yl]piperidine-4-carboxamide] the figure was under 10 nM.

On to `Cc1occc1-c1ccc(C2(C(=O)N[C@H]3CCN(C)C3)CCN(c3ccc(C(F)(F)F)cc3C#N)CC2)cn1` [Compound 1-120, 1-[2-cyano-4-(trifluoromethyl)phenyl]-4-[6-(2-methylfuran-3-yl)pyridin-3-yl]-N-[(3S)-1-methylpyrrolidin-3-yl]piperidine-4-carboxamide], for which the Ki is under 10 nM. As for `CCOc1ccccc1-c1ccc(C2(C(=O)N[C@H]3CCN(C)C3)CCN(c3ccc(C(F)(F)F)cc3F)CC2)nn1` [Compound 1-174, 4-[6-(2-ethoxyphenyl)pyridazin-3-yl]-1-[2-fluoro-4-(trifluoromethyl)phenyl]-N-[(3S)-1-methylpyrrolidin-3-yl]piperidine-4-carboxamide], the Ki was under 10 nM. With `CCOc1ncccc1-c1ncc(C2(C(=O)N[C@@H](C)CN(C)C)CCN(c3ccc(C(F)(F)F)cc3C#N)CC2)cc1F` [Compound 1-319, 1-[2-cyano-4-(trifluoromethyl)phenyl]-N-[(2S)-1-(dimethylamino)propan-2-yl]-4-{2′-ethoxy-3-fluoro-[2,3′-bipyridin]-5-yl}piperidine-4-carboxamide] the figure was under 10 nM; with `CN1CC(C(=O)NC2(c3ccc(-c4cccn4C)nc3)CCN(c3ccc(C(F)(F)F)cc3C#N)CC2)C1` [Compound 2-45, N-{1-[2-cyano-4-(trifluoromethyl)phenyl]-4-[6-(1-methyl-1H-pyrrol-2-yl)pyridin-3-yl]piperidin-4-yl}-1-methylazetidine-3-carboxamide], under 10 nM. With `CN1CC[C@@H](NC(=O)C2(c3ccc(-c4cccc(F)c4)nc3)CCN(c3ccc(C(F)(F)F)cc3C#N)CC2)C1` [Compound 1-64, 1-[2-cyano-4-(trifluoromethyl)phenyl]-4-[6-(3-fluorophenyl)pyridin-3-yl]-N-[(3R)-1-methylpyrrolidin-3-yl]piperidine-4-carboxamide] the figure was under 10 nM.
